Test results: patent US7235572B2, “Thiazolyl-indole derivatives, their manufacture and use as pharmaceutical agents” (Hoffman-La Roche Inc., priority 2003, dated 2007)

Experiments:
PPARα = biological target: T1, PPARα (Homo sapiens, UniProt Q07869); experiment: PPARα radioligand binding assay (scintillation proximity, GST-PPARα-LBD); settings: SPA radioligand binding
T1 construct: PPARα (aa 167 to 469); made in house; host or cells: E. coli BL21 (pLysS)
T1 sequence (Q07869 167-468 limits assumed): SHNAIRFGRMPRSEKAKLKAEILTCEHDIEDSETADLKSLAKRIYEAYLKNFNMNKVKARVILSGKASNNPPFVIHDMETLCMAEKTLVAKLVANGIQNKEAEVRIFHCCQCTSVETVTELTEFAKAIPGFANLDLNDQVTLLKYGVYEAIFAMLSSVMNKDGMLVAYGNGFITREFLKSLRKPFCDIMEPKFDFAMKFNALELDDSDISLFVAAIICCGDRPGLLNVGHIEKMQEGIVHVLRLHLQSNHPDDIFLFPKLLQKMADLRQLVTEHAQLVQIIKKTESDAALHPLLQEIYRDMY
Source text: (§1) Background information on the performed assays can be found in: Nichols J S et al. “Development of a scintillation proximity assay for peroxisome proliferator-activated receptor gamma ligand binding domain”, (1998) Anal. Biochem. 257: 112–119.
(§2) Full-length cDNA clones for humans PPARδ and PPARα and mouse PPARγ were obtained by RT-PCR from human adipose and mouse liver cRNA, respectively, cloned into plasmid vectors and verified by DNA sequencing. Bacterial and mammalian expression vectors were constructed to produce glutathione-s-transferase (GST) and Gal4 DNA binding domain proteins fused to the ligand binding domains (LBD) of PPARδ (aa 139 to 442), PPARγ (aa 174 to 476) and PPARα (aa 167 to 469). To accomplish this, the portions of the cloned sequences encoding the LBDs were amplified from the full-length clones by PCR and then subcloned into the plasmid vectors. Final clones were verified by DNA sequence analysis. […]
(§3) PPARα receptor binding was assayed in TKE50 (50 mM Tris-HCl, pH 8, 50 mM KCl, 2 mM EDTA, 0.1 mg/ml fatty acid-free BSA and 10 mM DTT). […] All binding assays were performed in 96 well plates and the amount of bound ligand measured on a Packard TopCount using OptiPlates (Packard). Nonspecific binding was determined in the presence of 10^−4 M unlabelled compound. […]

PPARδ = biological target: T2, PPARδ (Homo sapiens, UniProt Q03181); experiment: PPARδ radioligand binding assay (scintillation proximity, GST-PPARδ-LBD); settings: SPA radioligand binding
T2 construct: PPARδ (aa 139 to 442); made in house; host or cells: E. coli BL21 (pLysS)
T2 sequence (Q03181 139-441 limits assumed): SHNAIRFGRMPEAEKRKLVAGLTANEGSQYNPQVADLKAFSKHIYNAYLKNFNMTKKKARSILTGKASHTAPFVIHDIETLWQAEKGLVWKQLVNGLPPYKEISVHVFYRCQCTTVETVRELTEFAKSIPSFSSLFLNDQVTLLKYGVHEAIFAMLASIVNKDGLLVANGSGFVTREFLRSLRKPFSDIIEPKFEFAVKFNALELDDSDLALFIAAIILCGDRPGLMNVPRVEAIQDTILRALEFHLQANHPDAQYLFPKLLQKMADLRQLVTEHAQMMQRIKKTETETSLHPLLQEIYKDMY
Source text: as §1, §2
PPARδ receptor binding was assayed in HNM10 (50 mM Hepes, pH 7.4, 10 mM NaCl, 5 mM MgCl2, 0.15 mg/ml fatty acid-free BSA and 15 mM DTT). […] Radioligand was added and the reaction incubated at RT for 1 h and scintillation proximity counting performed in the presence of test compounds was determined. All binding assays were performed in 96 well plates and the amount of bound ligand was measured on a Packard TopCount using OptiPlates (Packard). […]

PPARγ = biological target: T3, PPARγ (Mus musculus, UniProt P37238); experiment: PPARγ radioligand binding assay (scintillation proximity, GST-PPARγ-LBD); settings: SPA radioligand binding
T3 construct: PPARγ (aa 174 to 476); made in house; host or cells: E. coli BL21 (pLysS)
T3 sequence (P37238 204-505): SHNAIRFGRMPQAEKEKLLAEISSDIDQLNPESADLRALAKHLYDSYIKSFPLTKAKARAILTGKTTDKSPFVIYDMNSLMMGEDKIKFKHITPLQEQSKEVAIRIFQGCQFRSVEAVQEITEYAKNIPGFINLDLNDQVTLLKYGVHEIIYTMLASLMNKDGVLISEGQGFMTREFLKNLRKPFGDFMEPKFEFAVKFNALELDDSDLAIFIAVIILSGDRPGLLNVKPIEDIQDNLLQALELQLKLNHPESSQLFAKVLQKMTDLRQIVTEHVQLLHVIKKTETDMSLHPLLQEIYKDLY
Source text: as §1, §2
as §3, with “PPARγ” for “PPARα”

Row | SMILES | IC50 (PPARα) | IC50 (PPARδ) | IC50 (PPARγ) | melting point
1 | Cc1nc(-c2ccc(C(F)(F)F)cc2)sc1CCCOc1cccc2c1ccn2CC(=O)O [Example 8, (4-{3-[4-methyl-2-(4-trifluoromethyl-phenyl)-thiazol-5-yl]-propoxy}-indol-1-yl)-acetic acid] | 227 nM | 42 nM | ≥ 10000 nM | –
2 | Cc1nc(-c2ccc(C(F)(F)F)cc2)sc1COc1ccc2c(c1)cc(C)n2CC(=O)O [Example 32, {2-methyl-5-[4-methyl-2-(4-trifluoromethyl-phenyl)-thiazol-5-ylmethoxy]-indol-1-yl}-acetic acid] | – | – | – | 187 to 188 °C (dec.)
3 | Cc1nc(-c2ccc(C(F)(F)F)cc2)sc1C(C)Oc1ccc2ccn(CC(=O)O)c2c1 (racemic) [Example 2, [rac]-(6-{1-[4-methyl-2-(4-trifluoromethyl-phenyl)-thiazol-5-yl]-ethoxy}-indol-1-yl)-acetic acid] | 2230 nM | 24 nM | ≥ 10000 nM | –
